The conditions of series [1]: solutions of pH greater than six; cited from earlier work.
Series [2] has as its system Escherichia coli. Nature of the series: Efficacy in the treatment of Escherichia coli infected chickens. In kind it is in vivo, broiler chickens. As to conditions: oral via drinking water, three consecutive days, recorded over ten days following treatment. An excerpt:
The aim of this study was to evaluate the effect of a treatment with a composition in accordance with the present invention on the mortality and clinical signs of chickens naturally infected by Escherichia coli, and to compare the efficacy of this treatment with the efficacy of a treatment with a composition containing only the antibiotic.
10 000 broiler chickens aged 1 day were used for the experiment. The birds were infected by natural infection by Escherichia coli.
The birds were then divided into 2 equal groups of 5 000 birds each. The first group was treated with a composition containing only enrofloxacin. The second group was treated with the composition of Example 1 of the present invention, containing both enrofloxacin and bromhexine-HCl. Thus, 1 ml of composition contained either 200 mg of enrofloxacin (composition for the treatment of the first group) or 200 mg of enrofloxacin and 10 mg of bromhexine-HCl (composition for the treatment of the second group).
For both groups, the treatment was made orally, for three consecutive days, and using the drinking water, at a dose of 1 ml of active composition per 4 litres of drinking water.
To assess the efficacy of the treatment, the mortality and body weight of the animals were recorded for each group over a period of ten days following the treatment.

Series [3] concerns pneumonia infection. Kind of series: Efficacy in the treatment of calves suffering from a pneumonia infection. As to conditions: intramuscular injection once a day for four consecutive days, results after 5 days. In kind it is in vivo. An excerpt: The aim of this study was to evaluate the effect of a treatment with a composition in accordance with the present invention on the mortality and clinical signs of calves suffering from a pneumonia infection, and to compare the efficacy of this treatment with the efficacy of a treatment with a composition containing only the antibiotic.
20 calves aged 1 to 4 months were used for the experiment. The animals were suffering from a pneumonia infection, characterized by severe respiratory disorders including coughing, rale and increased body temperature (measured between +39.5°C and +41°C).
The calves were divided into 2 equal groups of 10 animals each. The first group was treated with a composition containing only enrofloxacin. The second group was treated with the composition of Example 1 of the present invention, i.e. containing both enrofloxacin and bromhexine-HCl. Thus, 1 ml of composition contained either 200 mg of enrofloxacin (composition for the treatment of the first group) or 200 mg of enrofloxacin and 10 mg of bromhexine-HCl (composition for the treatment of the second group).
For both groups, the treatment was made by intramuscular injection, once a day and for four consecutive days, at a dose of 1 ml of active composition per 80 kg of animal body weight.
To assess the efficacy of the treatment, the mortality and body temperature of the animals were recorded for each group over a period of ten days following the treatment.

Regarding `CN(Cc1cc(Br)cc(Br)c1N)C1CCCCC1.Cl` [Bromhexine-HCl, N-(2-amino-3,5-dibromobenzyl)-N-methyl-cyclohexylamine hydrochloride], the precipitation in solutions entry in series [1] is recorded as “precipitate”.
Consider `CCN1CCN(c2cc3c(cc2F)c(=O)c(C(=O)O)cn3C2CC2)CC1` [Enrofloxacine, 1-cyclopropyl-7-(4-ethyl-1-piperazinyl)-6-fluoro-1,4-dihydro-4-oxo-3-quinoline carboxylic acid], for which the figures for the Mortality % in series [2] (1 ml composition per 4 litres) and in series [3] (1 ml per 80 kg body weight) were 2.23% and 10%, respectively. Besides, in series [2] (1 ml composition per 4 litres, 5000 birds per group), the Mortality dead birds is 113/5000. In series [2], this compound registered a Weight g/bird of 1810 g/bird. Also, the Mortality dead animals in series [3] (1 ml per 80 kg body weight, 10 calves per group) is 1/10. In addition, the Body temperature result in series [3] is “over 41.5 °C”.

These data come from EP1121940A1, “Pharmaceutical compositions comprising an antibiotic and bromhexine, and process for their preparation” (New Pharma Research Sweden AB, priority 2000, dated 2001).
